From patent publication US20060270631A1, “Methods for the treatment and prevention of angiogenic diseases” (priority 2005, published 2006)

Columns and labels:
endogenous SK [1] = assay: Cellular S1P formation assay in human chondrocytes (HC); format: cell-based; details: HCs; read-out: drug concentration that decreases S1P formation by 50%
Procedure: (§1) Cellular S1P formation assay. Cells were grown to confluency in 24-well tissue culture plates and serum-starved for 24 hours as described above. Cells were then treated with 1% DMSO (as the drug vehicle), 20 μM dimethylsphingosine, or the indicated concentration of an SK inhibitor for 4 hours. The cells were then incubated with [^3H]sphingosine for 15 minutes, and the formation of [^3H]S1P was measured as previously described (French et al., Cancer Res 63: 5962 (2003)). In some assays, the cells were serum-starved for 24 hours and then treated with VEGF (50 ng/mL) alone or in the presence of an SK inhibitor for an additional 12 hours. [^3 H]Sphingosine was then added for 15 minutes, and its conversion to [^3H]S1P was measured as indicated above.
(§2) A cell-based assay in which the phosphorylation of exogenously added [^3H]sphingosine to [^3H]S1P by endogenous SK can be quantified (French et al., Cancer Res 63: 5962 (2003)) was used to evaluate the effects of test compounds on the activity of SK in intact cells. In this assay, cells are incubated with [^3 H]sphingosine for an appropriate period of time, and then [^3H]sphingosine and [^3H]S1P (formed by endogenous SK activity) are separated by extraction and levels of both species are determined by scintillation counting. […] Similarly, the enzymatic activity of SK in bovine RECs, and its sensitivity to SK inhibitors were assessed. […]

endogenous SK [2] = assay: Cellular S1P formation assay in HFLS-RA cells; format: cell-based, human; details: read-out: drug concentration that decreases S1P formation by 50%
Procedure: as §1, §2

endogenous SK [3] = assay: Cellular SK activity in bovine retinal endothelial cells; format: cell-based; details: 25 μg/mL (approximately 80 μM), 4 hours
Procedure: FIG. 3. Inhibition of cellular SK activity in RECs. Bovine retinal endothelial cells were incubated with 20 μM dimethylsphingosine (DMS) or 25 μg/mL Compound I, Compound II or Compound V (approximately 80 μM for each compound) for 4 hours before the addition of 0.4 μCi of [^3H]sphingosine. After 15 minutes, cells were lysed and extracted with chloroform: methanol. The total amounts of [^3H]sphingosine in the organic phase and [^3H]S1P in the aqueous phase were then determined. Values represent the mean±SD of duplicate samples in a typical experiment.
as §1
A cell-based assay in which the phosphorylation of exogenously added [^3H]sphingosine to [^3H]S1P by endogenous SK can be quantified (French et al., Cancer Res 63: 5962 (2003)) was used to evaluate the effects of test compounds on the activity of SK in intact cells. In this assay, cells are incubated with [^3 H]sphingosine for an appropriate period of time, and then [^3H]sphingosine and [^3H]S1P (formed by endogenous SK activity) are separated by extraction and levels of both species are determined by scintillation counting. We have used a number of cell lines in this assay to confirm that the SK inhibitors are active in multiple intact cell systems. For example, human umbilical vein endothelial cells (HUVECs) are commonly used as a model of human vasculature. […] Similarly, the enzymatic activity of SK in bovine RECs, and its sensitivity to SK inhibitors were assessed. […] Each of inhibitors of SK (Compound I, Compound II and Compound V) was also active against the endogenous SK activity in the bovine RECs.

endogenous SK [4] = assay: VEGF-stimulated SK activity in bovine RECs; format: cell-based; details: VEGF 50 ng/mL, 12 hours, serum-starved bovine RECs
Procedure: FIG. 5. Effects of Compound II on VEGF-stimulated SK activity in RECs. Bovine RECs were serum-starved for 24 hours and then left untreated or incubated with VEGF (50 ng/mL) in the presence of DMS (D) or the indicated concentration (in μM) of Compound II for 12 hours. [^3H]Sphingosine was then added to the cells and its conversion to [^3H]S1P was determined. Values represent the mean±SD of duplicate samples in a typical experiment.
as §1
The effects of VEGF on SK activity in bovine RECs using the same cell-based assay as above, except that serum was removed from the cultures 24 hours before the addition of the SK inhibitor and VEGF were tested. […]

phosphorylated ERK1/2 = assay: Western analysis of phosphorylated ERK1/2 in human RECs; format: cell-based
Procedure: Western Blotting. Protein concentrations were determined using the fluorescamine assay (Bohlen et al., Arch Biochem Biophys 155: 213 (1973)) with bovine serum albumin as the standard. Samples were normalized for equal amounts of protein per lane (100 μg), separated by sodium dodecylsulfate-polyacrylamide gel electrophoresis and electrotransferred to nitrocellulose membranes. For SK analyses, membranes were blocked with 5% nonfat milk in Tris-buffered saline with Tween 20 and probed with an anti-SK rabbit polyclonal antibody at a 1:50 dilution, washed and incubated with […] antibodies conjugated to horseradish peroxidase (1 hr in 3% nonfat milk). The blots were then washed 4 times for 5 minutes at room temperature, developed with SuperSignal development reagents (Pierce Biotechnology, Inc., Rockford, Ill.) and exposed to Kodak XAR film. […]
Western analyses were conducted to evaluate the effects of Compound II on signaling proteins known to be regulated in endothelial cells by VEGF or TNFα. […] Cell lysates from cells treated with VEGF for 15 minutes were then analyzed for levels of phosphorylated ERK1/2 as a measure of signaling through the Ras-mediated proliferation pathway. Samples from cells treated with TNFα were analyzed for activation of NFκB, i.e. phosphoNFκB, and the down-stream proteins, cyclooxygenase-2 (Cox-2), E-selectin and VCAM-1. […]

Compound: Oc1ccc(Nc2nc(-c3ccc(Cl)cc3)cs2)cc1 [Compound II]
- IC50 (endogenous SK [1]): 360 nM
- IC50 (endogenous SK [2]): 190 nM
- endogenous SK activity in bovine RECs (endogenous SK [3]): active
- concentration completely inhibiting the SK activity response to VEGF (endogenous SK [4]): ≥ 1.3 µM
- VEGF-promoted phosphorylation of ERK1/2 (phosphorylated ERK1/2; VEGF 50 ng/mL, 15 minutes): completely abrogated
- residual pERK1/2 in serum-starved cells (phosphorylated ERK1/2; human RECs, no VEGF): eliminated
